In patent publication US20230092890A1, “1, 3, 4-Oxadiazole derivative compounds as histone deacetylase 6 inhibitor, and the pharmaceutical composition comprising the same” (Chong Kun Dang Pharmaceutical Corp., priority 2019, published 2023) one finds IC50 data, which are given here for 18 molecules.

One assay deals with T1, HDAC1 (Homo sapiens, UniProt Q13547).
T1 construct: purchased Enzolifesciences BML-AK511
The experiment in a line: HDAC enzyme activity inhibition (in vitro), HDAC1 Fluorimetric Drug Discovery Assay Kit. Format: biochemical. Conditions: samples at 100, 1000 and 10000 nM; 37° C. 60 minutes; fluorescence Ex 390, Em 460; read-out: HDAC1 IC50. In outline: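 HDAC1 was tested at 100, 1000 and 10000 nM and recombinant human HDAC6 at 0.1, 1, 10, 100 and 1000 nM. Enzyme reactions ran 60 min at 37° C, then developer was added for 30 min at 37° C, and fluorescence (Ex 390, Em 460) was read.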

The target of a further assay is T2, HDAC6 human recombinant (Homo sapiens, UniProt Q9UBN7).
T2 construct: purchased Calbiochem 382180
T2 sequence (Q9UBN7 1-1215): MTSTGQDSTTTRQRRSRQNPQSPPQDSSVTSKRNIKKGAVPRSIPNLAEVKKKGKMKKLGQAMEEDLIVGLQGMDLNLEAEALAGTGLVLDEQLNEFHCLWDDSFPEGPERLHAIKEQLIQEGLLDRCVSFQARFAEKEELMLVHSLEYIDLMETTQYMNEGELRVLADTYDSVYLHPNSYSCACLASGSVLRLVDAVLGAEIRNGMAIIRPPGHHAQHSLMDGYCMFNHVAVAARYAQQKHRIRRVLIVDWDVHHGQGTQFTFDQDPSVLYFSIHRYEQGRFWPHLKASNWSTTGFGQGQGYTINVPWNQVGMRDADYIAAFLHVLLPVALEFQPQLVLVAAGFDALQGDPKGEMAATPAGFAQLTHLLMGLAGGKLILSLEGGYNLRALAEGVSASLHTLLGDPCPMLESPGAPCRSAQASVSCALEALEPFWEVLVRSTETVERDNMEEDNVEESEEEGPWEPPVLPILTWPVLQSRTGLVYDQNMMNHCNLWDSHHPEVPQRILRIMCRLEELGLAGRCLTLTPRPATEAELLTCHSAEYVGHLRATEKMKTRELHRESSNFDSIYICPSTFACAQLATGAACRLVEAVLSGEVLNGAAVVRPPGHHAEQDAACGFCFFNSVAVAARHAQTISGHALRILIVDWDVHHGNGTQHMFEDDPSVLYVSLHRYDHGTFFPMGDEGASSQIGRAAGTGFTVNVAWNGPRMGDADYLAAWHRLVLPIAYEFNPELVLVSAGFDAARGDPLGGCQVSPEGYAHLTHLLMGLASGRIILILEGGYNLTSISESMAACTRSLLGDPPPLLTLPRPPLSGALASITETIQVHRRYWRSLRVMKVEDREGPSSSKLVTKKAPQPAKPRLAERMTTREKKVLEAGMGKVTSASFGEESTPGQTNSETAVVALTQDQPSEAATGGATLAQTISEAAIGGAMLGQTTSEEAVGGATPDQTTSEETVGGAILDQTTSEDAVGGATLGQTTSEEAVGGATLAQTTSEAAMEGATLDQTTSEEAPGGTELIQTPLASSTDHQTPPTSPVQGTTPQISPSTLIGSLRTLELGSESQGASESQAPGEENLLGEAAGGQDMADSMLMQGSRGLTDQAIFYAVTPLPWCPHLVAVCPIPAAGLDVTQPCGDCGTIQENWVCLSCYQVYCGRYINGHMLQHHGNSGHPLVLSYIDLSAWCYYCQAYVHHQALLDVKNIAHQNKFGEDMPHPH
The experiment in a line: HDAC enzyme activity inhibition (in vitro), HDAC6 assay. Format: biochemical. Conditions: samples at 0.1, 1, 10, 100 and 1000 nM; 37° C. 60 minutes; fluorescence Ex 390, Em 460; read-out: HDAC6 IC50. In outline: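 HDAC6 human recombinant enzyme with fluorimetric substrate; […]. Reaction 60 min at 37° C, then developer 30 min at 37° C; fluorescence read at Ex 390/Em 460.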

T1 sequence (Q13547 whole entry): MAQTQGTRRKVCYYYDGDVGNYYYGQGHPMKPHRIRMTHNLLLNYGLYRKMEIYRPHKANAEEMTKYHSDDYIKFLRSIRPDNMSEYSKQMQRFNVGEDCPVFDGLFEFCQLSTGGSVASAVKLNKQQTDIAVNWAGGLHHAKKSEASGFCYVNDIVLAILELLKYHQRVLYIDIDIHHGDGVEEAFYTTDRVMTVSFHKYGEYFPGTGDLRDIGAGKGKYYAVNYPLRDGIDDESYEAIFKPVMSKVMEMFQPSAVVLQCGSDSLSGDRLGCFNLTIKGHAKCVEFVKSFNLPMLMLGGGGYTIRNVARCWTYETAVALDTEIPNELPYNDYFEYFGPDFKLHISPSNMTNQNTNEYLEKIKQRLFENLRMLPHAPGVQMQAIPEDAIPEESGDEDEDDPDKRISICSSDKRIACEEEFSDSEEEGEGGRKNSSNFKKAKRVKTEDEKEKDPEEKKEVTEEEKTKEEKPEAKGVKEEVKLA

With `O=c1n(Cc2ccc(-c3nnc(C(F)F)o3)cn2)c2cc(F)c(-c3cccnc3)cc2n1[C@H]1CCCN(C2COC2)C1` [Compound 297, (S)-1-((5-(5-(difluoromethyl)-1,3,4-oxadiazole-2-yl)pyridine-2-yl)methyl)-6-fluoro-3-(1-(oxetan-3-yl)piperidine-3-yl)-5-(pyridine-3-yl)-1,3-dihydro-2H-benzo[d]imidazole-2-one], the half-maximal inhibitory concentration (IC50) (in general, the midpoint of a concentration-inhibition curve) on HDAC1 was greater than 10000 nM; on HDAC6 human recombinant, 10 nM.

Consider `CCN1CCC[C@H](n2c(=O)n(Cc3ccc(-c4nnc(C(F)F)o4)cn3)c3cc(F)c(-c4cccnc4)cc32)C1` [Compound 298, (S)-1-((5-(5-(difluoromethyl)-1,3,4-oxadiazole-2-yl)pyridine-2-yl)methyl)-3-(1-ethylpiperidine-3-yl)-6-fluoro-5-(pyridine-3-yl)-1,3-dihydro-2H-benzo[d]imidazole-2-one], for which the IC50 is greater than 10000 nM at HDAC1 and 9 nM at HDAC6 human recombinant.

Regarding `O=c1n(Cc2ccc(-c3nnc(C(F)F)o3)cn2)c2cc(F)c(-c3ccncc3)cc2n1[C@H]1CCCN(C2COC2)C1` [Compound 299, (S)-1-((5-(5-(difluoromethyl)-1,3,4-oxadiazole-2-yl)pyridine-2-yl)methyl)-6-fluoro-3-(1-(oxetan-3-yl)piperidine-3-yl)-5-(pyridine-4-yl)-1,3-dihydro-2H-benzo[d]imidazole-2-one], the IC50 on HDAC1 is greater than 10000 nM; at HDAC6 human recombinant it was 13 nM.

For the molecule `CCN1CCC[C@H](n2c(=O)n(Cc3ccc(-c4nnc(C(F)F)o4)cn3)c3cc(F)c(-c4ccncc4)cc32)C1` [Compound 300, (S)-1-((5-(5-(difluoromethyl)-1,3,4-oxadiazole-2-yl)pyridine-2-yl)methyl)-3-(1-ethylpiperidine-3-yl)-6-fluoro-5-(pyridine-4-yl)-1,3-dihydro-2H-benzo[d]imidazole-2-one], the half-inhibitory concentration (IC50) is greater than 10000 nM on HDAC1 and 13 nM on HDAC6 human recombinant.

Regarding `O=c1n(Cc2ccc(-c3nnc(C(F)F)o3)cn2)c2cc(F)ccc2n1CC1CCN(C2COC2)CC1` [Compound 301, 3-((5-(5-(difluoromethyl)-1,3,4-oxadiazole-2-yl)pyridine-2-yl)methyl)-5-fluoro-1-((1-(oxetan-3-yl)piperidine-4-yl)methyl)-1,3-dihydro-2H-benzo[d]imidazole-2-one], the IC50 is greater than 10000 nM on HDAC1 and 29 nM on HDAC6 human recombinant.

For `O=c1n(Cc2ccc(-c3nnc(C(F)F)o3)cn2)c2cc(F)ccc2n1C1CN(C2COC2)C1` [Compound 302, 3-((5-(5-(difluoromethyl)-1,3,4-oxadiazole-2-yl)pyridine-2-yl)methyl)-5-fluoro-1-(1-(oxetan-3-yl)azetidine-3-yl)-1,3-dihydro-2H-benzo[d]imidazole-2-one], the half-inhibitory concentration (IC50) is greater than 10000 nM at HDAC1 and 38 nM on HDAC6 human recombinant.

For `Cn1c(=O)n(Cc2ccc(-c3nnc(C(F)F)o3)cn2)c2cc(F)c(N3CCN(Cc4cccnc4)CC3)cc21` [Compound 303, 1-((5-(5-(difluoromethyl)-1,3,4-oxadiazole-2-yl)pyridine-2-yl)methyl)-6-fluoro-3-methy 1-5-(4-(pyridine-3-ylmethyl)piperazine-1-yl)-1,3-dihydro-2H-benzo[d]imidazole-2-one], the values for the half-inhibitory concentration (IC50) on HDAC1 and on HDAC6 human recombinant were greater than 10000 nM and 29 nM, respectively.

Regarding `O=c1oc2cc(-c3cccnc3)ccc2n1Cc1ccc(-c2nnc(C(F)F)o2)cn1` [Compound 304, 3-((5-(5-(difluoromethyl)-1,3,4-oxadiazole-2-yl)pyridine-2-yl)methyl)-6-(pyridine-3-yl) benzo[d]oxazole-2(3H)-one], the IC50 at HDAC1 was greater than 10000 nM; at HDAC6 human recombinant, 37 nM.

As for `O=c1oc2cc(-c3ccncc3)ccc2n1Cc1ccc(-c2nnc(C(F)F)o2)cn1` [Compound 305, 3-((5-(5-(difluoromethyl)-1,3,4-oxadiazole-2-yl)pyridine-2-yl)methyl)-6-(pyridine-4-yl) benzo[d]oxazole-2(3H)-one], the IC50 at HDAC1 was greater than 10000 nM; at HDAC6 human recombinant it was 50 nM.

`O=c1oc2cc(-c3cccc4[nH]ccc34)ccc2n1Cc1ccc(-c2nnc(C(F)F)o2)cn1` [Compound 306, 3-((5-(5-(difluoromethyl)-1,3,4-oxadiazole-2-yl)pyridine-2-yl)methyl)-6-(1H-indole-4-yl)benzo[d]oxazole-2(3H)-one]: the values for the IC50 on HDAC1 and on HDAC6 human recombinant were greater than 10000 nM and 34 nM, respectively.

With `CC(C)(C)OC(=O)N1CCC(c2ccc3c(c2)oc(=O)n3Cc2ccc(-c3nnc(C(F)F)o3)cn2)CC1` [Compound 307, tert-butyl 4-(3-((5-(5-(difluoromethyl)-1,3,4-oxadiazole-2-yl)pyridine-2-yl)methyl)-2-oxo-2,3-dihydrobenzo[d]oxazole-6-yl)piperidine-1-carboxylate], the figures for the IC50 at HDAC1 and on HDAC6 human recombinant were greater than 10000 nM and 399 nM, respectively.

As to `O=c1oc2cc(C3CCNCC3)ccc2n1Cc1ccc(-c2nnc(C(F)F)o2)cn1` [Compound 308, 3-((5-(5-(difluoromethyl)-1,3,4-oxadiazole-2-yl)pyridine-2-yl)methyl)-6-(piperidine-4-yl)benzo[d]oxazole-2(3H)-one], the figures for the IC50 at HDAC1 and at HDAC6 human recombinant were greater than 10000 nM and 456 nM, respectively.

As to `CN1CCC(c2ccc3c(c2)oc(=O)n3Cc2ccc(-c3nnc(C(F)F)o3)cn2)CC1` [Compound 309, 3-((5-(5-(difluoromethyl)-1,3,4-oxadiazole-2-yl)pyridine-2-yl)methyl)-6-(1-methylpiperidine-4-yl)benzo[d]oxazole-2(3H)-one], the IC50 is greater than 10000 nM at HDAC1 and 53 nM at HDAC6 human recombinant.

For `O=c1n(Cc2ccc(-c3nnc(C(F)F)o3)cn2)c2cc(F)c(-c3cccc4[nH]ccc34)cc2n1C1CN(C2COC2)C1` [Compound 310, 1-((5-(5-(difluoromethyl)-1,3,4-oxadiazole-2-yl)pyridine-2-yl)methyl)-6-fluoro-5-(1H-indole-4-yl)-3-(1-(oxetan-3-yl)azetidine-3-yl)-1,3-dihydro-2H-benzo[d]imidazole-2-one], the IC50 on HDAC1 is greater than 10000 nM; at HDAC6 human recombinant it was 6 nM.

For the molecule `O=c1n(Cc2ccc(-c3nnc(C(F)F)o3)cn2)c2cc(F)c(-c3cccnc3)cc2n1C1CN(C2COC2)C1` [Compound 311, 1-((5-(5-(difluoromethyl)-1,3,4-oxadiazole-2-yl)pyridine-2-yl)methyl)-6-fluoro-3-(1-(oxetan-3-yl)azetidine-3-yl)-5-(pyridine-3-yl)-1,3-dihydro-2H-benzo[d]imidazole-2-one], the IC50 at HDAC1 was greater than 10000 nM; at HDAC6 human recombinant it was 12 nM.

Regarding `O=c1n(Cc2ccc(-c3nnc(C(F)F)o3)cn2)c2cc(F)c(-c3cn[nH]c3)cc2n1C1CN(C2COC2)C1` [Compound 312, 1-((5-(5-(difluoromethyl)-1,3,4-oxadiazole-2-yl)pyridine-2-yl)methyl)-6-fluoro-3-(1-(oxetan-3-yl)azetidine-3-yl)-5-(1H-pyrazole-4-yl)-1,3-dihydro-2H-benzo[d]imidazole-2-one], the half-maximal inhibitory concentration (IC50) is greater than 10000 nM on HDAC1 and 6 nM at HDAC6 human recombinant.

As for `CC(C)N1CCC(c2ccc3c(c2)oc(=O)n3Cc2ccc(-c3nnc(C(F)F)o3)cn2)CC1` [Compound 313, 3-((5-(5-(difluoromethyl)-1,3,4-oxadiazole-2-yl)pyridine-2-yl)methyl)-6-(1-isopropylpiperidine-4-yl)benzo[d]oxazole-2(3H)-one], the IC50 is greater than 10000 nM at HDAC1 and 165 nM at HDAC6 human recombinant.

On to `O=c1oc2cc(C3CCN(C4COC4)CC3)ccc2n1Cc1ccc(-c2nnc(C(F)F)o2)cn1` [Compound 314, 3-((5-(5-(difluoromethyl)-1,3,4-oxadiazole-2-yl)pyridine-2-yl)methyl)-6-(1-(oxetan-3-yl)piperidine-4-yl)benzo[d]oxazole-2(3H)-one], for which the IC50 at HDAC1 is greater than 10000 nM; at HDAC6 human recombinant, 112 nM.
